Data as given in EPA's ToxRefDB 2.

Columns and labels:
rat [1] = details: Prenatal developmental toxicity study, sprague dawley, Oral, Gavage/Intubation, dose end: 17 GD, group: maternal
mouse [2] = details: Sub-acute repeat dose toxicity, cd1, Oral, Gavage/Intubation, dose end: 1 month, group: systemic
rat [3] = details: Chronic toxicity; sprague dawley; Oral; Gavage/Intubation; dose end: 6 month; group: systemic; systemic / clinical chemistry / chloride / chloride + systemic / clinical chemistry / sodium / sodium + systemic / hematology / hematocrit (…
rat [4] = details: Sub-acute repeat dose toxicity; sprague dawley; Oral; Gavage/Intubation; dose end: 1 month; group: systemic; systemic / hematology / blood clotting / blood clotting - prothrombin time + systemic / hematology / platelet / platelet + systemic / organ …
dog [5] = details: Subchronic oral toxicity in nonrodent, beagle, Capsule, dose end: 3 month, group: systemic, systemic / clinical chemistry / alanine aminotransferase (alt/sgpt) / alanine aminotransferase (alt/sgpt) + systemic / clinical chemistry / …
dog [6] = details: Sub-acute repeat dose toxicity, beagle, Oral, Capsule, dose end: 1 month, group: systemic
rat [7] = details: Sub-acute repeat dose toxicity, sprague dawley, Oral, Gavage/Intubation, dose end: 1 month
rat [8] = details: Fertility (Segment I), sprague dawley, Oral, Gavage/Intubation, dose end: 7 GD, group: parental
rat [9] = details: Fertility (Segment I), sprague dawley, Oral, Gavage/Intubation, dose end: 7 GD
mouse [10] = details: Subchronic oral toxicity in rodents, cd1, Gavage/Intubation, dose end: 3 month, group: systemic
rat [11] = details: Prenatal developmental toxicity study, sprague dawley, Oral, Gavage/Intubation, dose end: 17 GD
rabbit = details: Prenatal developmental toxicity study, new zealand white, Oral, Gavage/Intubation, dose end: 19 GD
mouse [12] = details: Subchronic oral toxicity in rodents, b6c3f1, Gavage/Intubation, dose end: 13 week, group: systemic
rat [13] = details: Combined chronic toxicity/carcinogenicity, fischer, Oral, Gavage/Intubation, dose end: 103 week, group: systemic
rat [14] = details: Subchronic oral toxicity in rodents, fischer, Gavage/Intubation, dose end: 13 week, group: systemic
[15] = systemic / in life observation / body weight / body weight gain + systemic / in life observation / food consumption / food consumption
[16] = systemic / in life observation / body weight / body weight gain + systemic / in life observation / food consumption / food consumption + …
[17] = systemic / in life observation / body weight / body weight gain + systemic / in life observation / clinical signs / drooping eyelids (ptosis…
[18] = systemic / in life observation / body weight / body weight gain + systemic / in life observation / clinical signs / piloerection + systemic…
[19] = systemic / clinical chemistry / alkaline phosphatase (alp/alk) / alkaline phosphatase (alp/alk) + systemic / clinical chemistry / …
[20] = systemic / clinical chemistry / lipids / phospholipids + systemic / pathology gross / liver / [other] + systemic / clinical chemistry / …
[21] = group: maternal, reproductive / reproductive performance / estrous cycle / abnormal
[22] = group: systemic, systemic / clinical chemistry / cholesterol / cholesterol + systemic / clinical chemistry / globulins / globulins + systemic / clinical …
[23] = group: systemic, systemic / urinalysis / specific gravity/osmolality / specific gravity/osmolality + systemic / urinalysis / volume / volume
[24] = systemic / in life observation / clinical signs / body surface staining
[25] = group: maternal, reproductive / reproductive performance / implantations / implantations + reproductive / reproductive performance / preimplantation loss / …
[26] = group: parental, systemic / in life observation / body weight / body weight gain
[27] = group: parental, systemic / in life observation / body weight / body weight gain + systemic / in life observation / clinical signs / body surface staining + …
[28] = systemic / clinical chemistry / cholesterol / cholesterol + systemic / clinical chemistry / bilirubin / total bilirubin + systemic / organ …
[29] = systemic / organ weight / liver / absolute + systemic / organ weight / liver / relative to body weight + systemic / organ weight / spleen / …
[30] = group: developmental, systemic / in life observation / body weight / fetal weight
[31] = group: maternal, reproductive / reproductive performance / preimplantation loss / preimplantation loss + systemic / in life observation / body weight / body …
[32] = group: maternal, systemic / in life observation / body weight / body weight gain + systemic / in life observation / clinical signs / piloerection + systemic…
[33] = group: maternal, reproductive / reproductive performance / postimplantation loss / postimplantation loss + reproductive / reproductive performance / …
[34] = group: maternal, systemic / in life observation / clinical signs / defecation
[35] = systemic / in life observation / body weight / body weight
[36] = systemic / in life observation / body weight / body weight + systemic / in life observation / clinical signs / altered breathing rate + …
[37] = systemic / pathology microscopic / liver / cytologic alterations + systemic / pathology microscopic / liver / hyperplasia
[38] = systemic / pathology microscopic / liver / cytologic alterations + systemic / pathology microscopic / liver / hyperplasia + systemic / …
[39] = systemic / in life observation / body weight / body weight + systemic / in life observation / clinical signs / lethargy + systemic / in life…

## COc1ccc(S(=O)(=O)N2C(=O)[C@@](c3ccccc3OC)(N3C[C@H](O)C[C@H]3C(=O)N(C)C)c3cc(Cl)ccc32)c(OC)c1 [Nelivaptan]
Rat [1]; [15]
  LEL: 150 mg/kg/day
  NEL: < 150 mg/kg/day
Rat [1]; [16]
  LOAEL: > 750 mg/kg/day
  NOAEL: ≥ 750 mg/kg/day
Mouse [2]; [17]
  LOAEL: > 4000 mg/kg/day
  NOAEL: ≥ 4000 mg/kg/day
Mouse [2]; [18]
  LEL: 1000 mg/kg/day
  NEL: < 1000 mg/kg/day
Rat [3]
  LEL: 25 mg/kg/day
  LOAEL: 25 mg/kg/day
  NEL: < 25 mg/kg/day
  NOAEL: < 25 mg/kg/day
Rat [4]
  LEL: 25 mg/kg/day
  LOAEL: > 200 mg/kg/day
  NEL: < 25 mg/kg/day
  NOAEL: ≥ 200 mg/kg/day
Dog [5]
  LEL: 100 mg/kg/day
  LOAEL: 100 mg/kg/day
  NEL: 25 mg/kg/day
  NOAEL: 25 mg/kg/day
Dog [6]; [19]
  LOAEL: 200 mg/kg/day
  NOAEL: 50 mg/kg/day
Dog [6]; [20]
  LEL: 50 mg/kg/day
  NEL: < 50 mg/kg/day
Rat [7]; [21]
  LEL: 800 mg/kg/day
  LOAEL: > 800 mg/kg/day
  NEL: 200 mg/kg/day
  NOAEL: ≥ 800 mg/kg/day
Rat [7]; [22]
  LOAEL: 200 mg/kg/day
  NOAEL: 50 mg/kg/day
Rat [7]; [23]
  LEL: 50 mg/kg/day
  NEL: < 50 mg/kg/day
Rat [8]; [15]
  LOAEL: 750 mg/kg/day
Rat [8]; [16]
  NOAEL: 450 mg/kg/day
Rat [8]; [24]
  LEL: 150 mg/kg/day
  NEL: < 150 mg/kg/day
Rat [9]; [25]
  LEL: 750 mg/kg/day
  LOAEL: 750 mg/kg/day
  NEL: 600 mg/kg/day
  NOAEL: 600 mg/kg/day
Rat [9]; [26]
  LEL: 100 mg/kg/day
  NEL: < 100 mg/kg/day
Rat [9]; [27]
  LOAEL: 750 mg/kg/day
  NOAEL: 600 mg/kg/day
Mouse [10]; [28]
  LOAEL: 1000 mg/kg/day
  NOAEL: 500 mg/kg/day
Mouse [10]; [29]
  LEL: 500 mg/kg/day
  NEL: < 500 mg/kg/day
Rat [11]; [30]
  LEL: 750 mg/kg/day
  LOAEL: 750 mg/kg/day
  NEL: 300 mg/kg/day
  NOAEL: 300 mg/kg/day
Rat [11]; [31]
  LOAEL: > 1500 mg/kg/day
  NOAEL: ≥ 1500 mg/kg/day
Rat [11]; [32]
  LEL: 300 mg/kg/day
  NEL: < 300 mg/kg/day
rabbit; [30]
  LEL: 2000 mg/kg/day
  LOAEL: > 2000 mg/kg/day
  NEL: 1000 mg/kg/day
  NOAEL: ≥ 2000 mg/kg/day
rabbit; [33]
  LOAEL: 1000 mg/kg/day
  NOAEL: 500 mg/kg/day
rabbit; [34]
  LEL: 250 mg/kg/day
  NEL: < 250 mg/kg/day

## COC(N)=O [Methyl carbamate]
Mouse [12]; [35]
  LEL: 125 mg/kg/day
  NEL: < 125 mg/kg/day
Mouse [12]; [36]
  LOAEL: > 1500 mg/kg/day
  NOAEL: ≥ 1500 mg/kg/day
Rat [13]; [37]
  LOAEL: 100 mg/kg/day
  NOAEL: < 100 mg/kg/day
Rat [13]; [38]
  LEL: 100 mg/kg/day
  NEL: < 100 mg/kg/day
Rat [14]; [39]
  LOAEL: > 800 mg/kg/day
  NEL: 200 mg/kg/day
  NOAEL: ≥ 800 mg/kg/day
Rat [14]; systemic / in life observation / body weight / body weight + systemic / in life observation / clinical signs / lethargy + systemic / organ …
  LEL: 400 mg/kg/day
